Each structure is given as a SMILES string. pIC50, pKi: −log10 of the molar value. Where a name gives a salt, the structure may show the parent alone. Read-outs that look alike come from different tables or passages of the source. A value given as a limit tells only on which side of the number the result lay.

In series [1] the target is T1, LCK tyrosine kinase (Homo sapiens, UniProt P06239, C224D/P223M).
T1 construct: starting from amino acid residue 223 to the end of the protein at residue 509; made in house; host or cells: insect cells
T1 sequence (P06239 223-509 P223M/C224D): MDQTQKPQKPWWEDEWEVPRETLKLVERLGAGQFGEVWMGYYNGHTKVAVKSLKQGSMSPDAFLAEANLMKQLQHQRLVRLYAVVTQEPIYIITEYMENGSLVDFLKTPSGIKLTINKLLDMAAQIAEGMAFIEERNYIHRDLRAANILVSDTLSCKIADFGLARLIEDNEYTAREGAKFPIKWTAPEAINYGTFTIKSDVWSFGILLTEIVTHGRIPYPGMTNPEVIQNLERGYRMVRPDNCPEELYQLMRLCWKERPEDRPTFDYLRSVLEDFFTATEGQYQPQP
Description: LCK spectrophotometric assay.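 Also: recombinant LCK kinase activity on poly(E4Y1), ADP formation coupled through PK/LDH to NADH oxidation, followed as absorbance loss at 340 nm.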 In kind it is biochemical.
Description: The production of ADP from ATP that accompanies phosphoryl transfer was coupled to oxidation of NADH using phosphoenolpyruvate (PEP) and a system having pyruvate kinase (PK) and lactic dehydrogenase (LDH). The oxidation of NADH was monitored by following the decrease of absorbance at 340 nm (e340=6.22 cm^−1 mM^−1) using a Beckman DU 650 spectrophotometer. Assay conditions for phosphorylated VEGF-R2Δ50 (indicated as FLVK-P in the tables below) were the following: 1 mM PEP; 250 μM NADH; 50 units of LDH/mL; 20 units of PK/mL; 5 mM DTT; 5.1 mM poly(E4Y1); 1 mM ATP; and 25 mM MgCl2 in 200 mM Hepes, pH 7.5. Assay conditions for unphosphorylated VEGF-R2Δ50 (indicated as FLVK in the tables) were the following: 1 mM PEP; 250 μM NADH; 50 units of LDH/mL; 20 units of PK/mL; 5 mM DTT; 20 mM poly(E4Y1); 3 mM ATP; and 60 mM MgCl2 and 2 mM MnCl2 in 200 mM Hepes, pH 7.5. Assays were initiated with 5 to 40 nM of enzyme. Ki values were determined by measuring enzyme activity in the presence of varying concentrations of test compounds. The data were analyzed using Enzyme Kinetic and Kaleidagraph software.

The target of series [2] is T2, phosphorylated VEGF-R2Δ50 (FLVK-P) (Homo sapiens, UniProt P35968, DEL940-989/E990V).
T2 construct: VEGF-R2Δ50 contains residues 806-939 and 990-1171; made in house; host or cells: baculovirus/insect cells
T2 sequence (P35968 with tags, fused parts or gaps DEL940-989/E990V limits assumed): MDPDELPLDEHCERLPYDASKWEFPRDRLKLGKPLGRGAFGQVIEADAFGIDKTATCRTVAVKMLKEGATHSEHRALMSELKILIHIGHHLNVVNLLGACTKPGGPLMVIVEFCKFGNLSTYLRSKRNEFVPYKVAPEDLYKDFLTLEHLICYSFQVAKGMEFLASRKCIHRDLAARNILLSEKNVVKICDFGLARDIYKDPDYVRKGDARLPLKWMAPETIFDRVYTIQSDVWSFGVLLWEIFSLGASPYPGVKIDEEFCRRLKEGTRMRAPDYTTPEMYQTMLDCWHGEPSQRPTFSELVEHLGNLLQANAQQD
Description: VEGF-R2 coupled spectrophotometric assay, phosphorylated construct (FLVK-P). In kind it is biochemical. The procedure, abridged: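 Baculovirus-expressed VEGF-R2Δ50 (residues 806-939/990-1171, E990V), optionally autophosphorylated; ADP formation coupled via PK/LDH to NADH oxidation at 340 nm, pH 7.5 Hepes. FLVK-P: 1 mM ATP, 5.1 mM poly(E4Y1), 25 mM MgCl2; FLVK: 3 mM ATP, 20 mM poly(E4Y1), 60 mM MgCl2, 2 mM MnCl2. Ki from activity over compound concentrations.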

In series [3] the test system is human umbilical vein endothelial cells (HUVEC). As to the kind of experiment: HUVEC proliferation assay (VEGF-stimulated, MTT). In kind it is cell-based. To be noted: Homo sapiens. An outline of the steps:
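Exponentially growing HUVEC (passage 3-4) were serum-starved 24 h in F12K + 1% FBS, given test compound (final DMSO 0.1%), then stimulated 1 h later with VEGF at 6 ng/ml final. Proliferation read after 72 h by 4 h MTT dye reduction, absorbance at 595.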

The target in series [4] is T3, unphosphorylated VEGF-R2Δ50 (FLVK) (Homo sapiens, UniProt P35968, DEL940-989/E990V).
T3 construct: VEGF-R2Δ50 contains residues 806-939 and 990-1171; made in house; host or cells: baculovirus/insect cells
T3 sequence (P35968 with tags, fused parts or gaps DEL940-989/E990V limits assumed): as above
Description: VEGF-R2 coupled spectrophotometric assay, unphosphorylated construct (FLVK).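 As to all read-outs here: Baculovirus-expressed cytosolic kinase domain, ADP formation linked via pyruvate kinase and lactate dehydrogenase to NADH oxidation, read as falling absorbance at 340 nm.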 In kind it is biochemical. To be noted: for inhibition at 0.05 µM: @ 50 nM, read-out: FLVK percent inhibition.

Series [5] concerns the target T4, FGF-R1 intracellular kinase domain (Homo sapiens, UniProt P11362, C488A/C584S/L457V).
T4 construct: starting from the endogenous methionine residue 456 to glutamate 766; made in house; host or cells: baculovirus expression system
As to the kind of experiment: FGF-R spectrophotometric assay.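 As to all read-outs here: coupled PK/LDH enzyme assay: ADP from kinase phosphoryl transfer drives NADH oxidation, read as absorbance decrease at 340 nm, with 2 mM ATP and poly(E4Y1) substrate.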 In kind it is biochemical. Conditions: for inhibition at 1 µM: read-out: FGF-P percent inhibition.

Series [6] concerns lung cancer cells (line MV522). Description: Cancer cell proliferation (MV522) assay (MTT). In kind it is cell-based. Here is the method: The protocol for assessing cellular proliferation in cancer cells is similar to that used for assessments in HUVEC cells. Two thousand lung cancer cells (line MV522, acquired from American Tissue Cultural Collection) were seeded in growth media (RPMI1640 medium supplemented with 2 mM glutamine and 10% FBS). Cells are allowed to attach for 1 day prior to addition of test agents and/or vehicles. Cells are treated simultaneously with the same test agents used in the HUVEC assay. Cellular proliferation is quantified by MTT dye reduction assay 72 hours after exposure to test agents. The total length of the assay is 4 days vs. 5 for HUVEC cells because MV522 cells are not exposed to starvation medium.

Where [7] appears, read: read-out: LCK-P percent inhibition.
Where [8] appears, read: HUVEC proliferation with albumin, read-out: Huvec + Albumin IC50.
Setting [9] is: unphosphorylated VEGF-R2 construct.
Setting [10] is: HUVEC, with albumin, read-out: Huvec + Albumin IC50.
[11] abbreviates: VEGF-stimulated HUVEC proliferation, read-out: HUVEC IC50.

T4 sequence (P11362 456-766 L457V/C488A/C584S): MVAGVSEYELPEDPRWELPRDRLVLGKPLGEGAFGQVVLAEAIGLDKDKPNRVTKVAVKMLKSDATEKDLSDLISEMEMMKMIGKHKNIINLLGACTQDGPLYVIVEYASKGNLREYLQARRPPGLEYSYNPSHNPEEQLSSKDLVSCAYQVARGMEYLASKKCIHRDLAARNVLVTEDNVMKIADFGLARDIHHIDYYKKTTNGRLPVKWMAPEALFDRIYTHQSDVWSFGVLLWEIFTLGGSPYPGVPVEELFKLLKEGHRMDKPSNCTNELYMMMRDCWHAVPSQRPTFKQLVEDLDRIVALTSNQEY

As to `CC(=O)Nc1ccc(CCc2cccc(C(=O)Nc3ccc(N4CCNCC4)c(C(F)(F)F)c3)c2)cn1` [AA-1, 3-[2-(6-Acetylamino-pyridin-3-yl)-ethyl]-N-(4-piperazin-1-yl-3-trifluoromethylphenyl)-benzamide dihydrochloride], the inhibition at 1 µM turned out to be 44% in series [1] (setting [7]) and 39% in series [5]. Moreover, in series [2] (@ 50 nM, read-out: FLVK-P percent inhibition), the inhibition at 0.05 µM was determined as 59%. Moreover, in series [3] (setting [8]), the pIC50 is 7.60. Also, the pKi in series [4] (setting [9]) is 8.55.

For the compound `O=C(Nc1ccc(N2CCNCC2)c(C(F)(F)F)c1)c1ccc(F)c(OCc2cncc(-c3ccco3)c2)c1` [EE-1, 4-Fluoro-3-(5-furan-2-yl-pyridin-3-ylmethoxy)-N-(4-piperazin-1-yl-3-trifluoromethyl-phenyl)-benzamide dihydrochloride], the inhibition at 1 µM in series [1] (setting [7]) was 53%; in series [5] it was 32%. Also, the pIC50 in series [3] (setting [8]) was 6.74. For the same compound, the pKi in series [4] (setting [9]) was 8.47.

For `Cc1cc(NC(=O)c2cccc(CSc3cnccn3)c2)ccc1C(C)C` [Example A-3, N-(4-Isopropyl-3-methylphenyl)-3-[(pyrazin-2-yl)sulfanylmethyl]benzamide], the melting point was 69 to 73 °C. This compound gave a negative logarithm of the Ki (pKi) in series [2] of 7.49. Also, in series [3] (HUVEC, read-out: HUVEC IC50), the negative-log IC50 (pIC50) was 6.62. Moreover, in series [4], the pKi was 8.35. The compound also showed a negative-log IC50 (pIC50) in series [6] (MV522) below 5.00.

The compound `Cc1cc(NC(=O)c2cccc(CSc3ncnc4[nH]ncc34)c2)ccc1C(C)C` [Example A-5, N-(4-Isopropyl-3-methylphenyl)-3-[(1H-pyrazolo[3,4-d]pyrimidin-4-yl)sulfanylmethyl]benzamide] returned a melting point of 187 to 189 °C. In addition, the inhibition at 5 µM in series [1] (@ 5 μM, read-out: LCK-P percent inhibition) amounted to 37%. Besides, in series [2], the pKi was 8.06. In addition, the negative logarithm of the IC50 (pIC50) in series [3] (HUVEC, read-out: HUVEC IC50) is 6.57. This compound gave a negative-log Ki (pKi) in series [4] of 9.00. Further, the pIC50 in series [6] (MV522) was below 5.00.

On to `COc1cc(NC(=O)c2cccc(CSc3ncnc4[nH]ncc34)c2)cc(OC)c1OC` [Example B-1, N-(3,4,5-Trimethoxyphenyl)-3-[(1H-pyrazolo[3,4-d]pyrimidin-4-yl)sulfanylmethyl]benzamide], for which the pKi in series [2] is 6.95; in series [4] it was 7.60; in series [5] (read-out: FGF-P Ki), 4.06.

For the compound `C/C=C/c1cc(COc2cc(C(=O)Nc3ccc(N4CCCC4)c(C(F)(F)F)c3)ccc2F)[nH]n1` [Example F-4, 4-Fluoro-3-[{5-((E)-1-propenyl)-2H-pyrazol-3-yl}methoxy]-N-[4-(pyrrolidin-1-yl)-3-trifluoromethylphenyl]benzamide], the inhibition at 1 µM stood at 19% in series [1] (setting [7]) and 18% in series [5]. For the same compound, the negative logarithm of the IC50 (pIC50) in series [3] (HUVEC, read-out: HUVEC IC50) was 7.20; in series [6] (MV522), 5.59.

Take `CNS(=O)(=O)c1ccc(Nc2cc(CCc3cccc(C(=O)Nc4ccc(C(C)C)c(C)c4)c3)[nH]n2)cc1` [Example G-1, N-(4-Isopropyl-3-methyl-phenyl)-3-{2-[5-(4-(methylsulfamoyl)phenylamino)-2H-pyrazol-3-yl]-ethyl}-benzamide]: the negative-log Ki (pKi) in series [1] (read-out: LCK-P Ki) is 7.05; in series [2], 9.23. Besides, the pIC50 is 8.00 in series [3] (HUVEC, read-out: HUVEC IC50); 6.36 in series [3] (setting [10]); below 5.00 in series [6] (MV522). Also, in series [5], the inhibition at 1 µM was 81%.

For the compound `COc1ccc(Nc2cc(COc3cc(C(=O)Nc4ccc(-n5ccnc5)c(C(F)(F)F)c4)ccc3F)[nH]n2)cn1` [Example J-1, 4-Fluoro-N-[4-(imidazol-1-yl)-3-trifluoromethylphenyl]-3-[5-(6-methoxypyridin-3-yl)amino-2H-pyrazol-3-ylmethoxy]-benzamide], the inhibition at 1 µM in series [1] (setting [7]) is 38%; in series [5], 61%. Besides, the pIC50 in series [3] (HUVEC, read-out: HUVEC IC50) was 7.43. In series [4], this compound showed a negative logarithm of the Ki (pKi) of 8.80.

For `COc1cc(NC(=O)c2ccc(F)c(OCc3cc(Nc4ccc(OC)nc4)n[nH]3)c2)cc(C(F)(F)F)c1` [Example J-3, 4-Fluoro-3-[5-(6-methoxypyridin-3-yl)amino-2H-pyrazol-3-yl]methoxy-N-(3-methoxy-5-trifluoromethyl-phenyl)-benzamide], the values for the inhibition at 1 µM in series [1] (setting [7]) and in series [5] were 44% and 54%, respectively. The pIC50 in series [3] (HUVEC, read-out: HUVEC IC50) was 7.30. Moreover, in series [4], the negative logarithm of the Ki (pKi) is 9.04.

With `CC(=O)Nc1ccc(COc2cccc(C(=O)Nc3ccc(C(C)C)c(C)c3)c2)cn1` [Example N-2, 3-(6-Acetylaminopyridin-3-yl)methoxy-N-(4-Isopropyl-3-methyl-phenyl)-benzamide], the melting point was 98 to 101 °C. Also, the negative-log IC50 (pIC50) in series [3] (HUVEC, read-out: HUVEC IC50) is below 7.00. In addition, the inhibition at 0.05 µM in series [4] is 8%. The pIC50 in series [6] (MV522) is below 5.00.

As for `O=C(Nc1ccc(N2CCOCC2)c(C(F)(F)F)c1)c1ccc(F)c(OCc2cnc3ccccc3c2)c1` [Example R-16, 4-Fluoro-N-(4-morpholin-4-yl-3-trifluoromethyl-phenyl)-3-(quinolin-3-ylmethoxy)-benzamide], the melting point lay in the range of 81 to 84 °C. Further, the negative-log IC50 (pIC50) in series [3] (HUVEC, read-out: HUVEC IC50) was 7.89. The same compound showed a pKi in series [4] of 8.64. In series [6] (MV522), this compound showed a pIC50 of 5.25.

`O=C(Nc1cc(Cl)c(N2CCOCC2)c(Cl)c1)c1ccc(F)c(OCc2cccnc2)c1` [Example R-18, N-(3,5-Dichloro-4-morpholin-4-yl-phenyl)-4-fluoro-3-(pyridin-3-ylmethoxy)-benzamide]: the melting point lay in the range of 209 to 211 °C. The pIC50 in series [3] (HUVEC, read-out: HUVEC IC50) is 7.74. The compound further had a negative logarithm of the Ki (pKi) in series [4] of 8.51. In addition, the negative-log IC50 (pIC50) in series [6] (MV522) was below 5.00.

The compound `O=C(Nc1cc(Cl)c(N2CCNCC2)c(Cl)c1)c1ccc(F)c(OCc2cccnc2)c1` [Example R-19, N-(3,5-Dichloro-4-piperazin-1-yl-phenyl)-4-fluoro-3-(pyridin-3-ylmethoxy)-benzamide] gave a melting point of 81 to 85 °C. Besides, the negative-log IC50 (pIC50) in series [3] (HUVEC, read-out: HUVEC IC50) is 7.19. Also, the pKi in series [4] is 7.86. In series [6] (MV522), the negative logarithm of the IC50 (pIC50) is 5.77.

In the case of `CN1CCN(c2ccc(NC(=O)c3ccc(F)c(OCc4cccnc4)c3)cc2C(F)(F)F)CC1` [Example R-20], the melting point was 61 to 66 °C. In addition, the negative-log IC50 (pIC50) in series [3] (HUVEC, read-out: HUVEC IC50) is 6.81. Further, in series [4], the inhibition at 0.05 µM amounted to 19%. In series [6] (MV522), the negative logarithm of the IC50 (pIC50) is 5.59.

Take `O=C(Nc1ccc(-n2cccn2)c(C(F)(F)F)c1)c1ccc(F)c(OCc2cccnc2)c1` [Example R-22, 4-Fluoro-N-(4-pyrazol-1-yl-3-trifluoromethyl-phenyl)-3-(pyridin-3-ylmethoxy)-benzamide]: the figures for the inhibition at 1 µM in series [1] (setting [7]) and in series [5] were 13% and 21%, respectively. For the same compound, the negative logarithm of the IC50 (pIC50) in series [3] (setting [10]) is below 7.00. In series [4], the inhibition at 0.05 µM amounted to 52%.

Compound `Cc1cc(NC(=O)c2cccc(CCc3cccnc3)c2)ccc1C(C)C` [Example U-2, N-(4-Isopropyl-3-methyl-phenyl)-3-(2-pyridin-3-yl-ethyl)-benzamide] came in with a melting point of 143 to 144 °C. Further, the pKi in series [2] was 7.91. In addition, the pIC50 in series [3] (HUVEC, read-out: HUVEC IC50) is 7.00. In series [6] (MV522), this compound gave a pIC50 below 5.00.

Consider `COc1ccc(Nc2cc(CSc3cccc(NC(=O)c4ccc(O)c(C(C)(C)C)c4)c3)[nH]n2)cn1` [Example W-1, 3-t-Butyl-4-hydroxy-N-{3-[5-(6-methoxy-pyridin-3-ylamino)-2 H-pyrazol-3-ylmethylsulfanyl]-phenyl}-benzamide], for which the inhibition at 1 µM in series [1] (setting [7]) turned out to be 88%; in series [5], 67%. Further, the pIC50 in series [3] (setting [11]) was 7.64. The pKi in series [4] (setting [9]) is 9.92.

Compound `CC(=O)Oc1ccc(C(=O)Nc2cccc(OCc3cncc4ccccc34)c2)cc1C(C)(C)C` [Example X-3, 4-Acetoxy-3-t-butyl-N-[3-(isoquinolin-4-ylmethoxy)phenyl]-benzamide] displayed a melting point of 83 to 86 °C. Moreover, in series [3] (setting [11]), the negative-log IC50 (pIC50) was 7.00 to 7.52. Moreover, the negative logarithm of the Ki (pKi) in series [4] (setting [9]) is 8.66. Further, in series [6] (MV522 lung cancer cells), the pIC50 was 5.34.

By inhibition is commonly meant the share of the control response that was lost under treatment. As usually defined, the pIC50 is the negative decadic logarithm of the IC50, by convention in mol/L. A word on the pKi: it is −log10 of the Ki, conventionally taken in molar units. In general, melting point refers to the temperature, or range, at which the solid turns liquid.

The record behind these values is patent US6635641B2 (Agouron Pharmaceuticals, Inc., priority 2000, dated 2003).
